Test results taken from patent US20180002288A1, “USE OF PICOLINAMIDES AS FUNGICIDES” (DOW AGROSCIENCES LLC, priority 2014, published 2018).
Read-outs that look alike come from different tables or passages of the source.

Assays:
Type in all cases: in vivo
Puccinia triticina = assay: Wheat Brown Rust fungicidal activity (PUCCRT); conditions: Low Volume Cereal Activity at 121.5 g/Ha
Cercospora beticola = assay: Leaf Spot of Sugar Beets fungicidal activity (CERCBE); conditions: 24 h, sugar beet, high volume, 1 Day Protectant, read-out: CERCBE % Control rating
Protocol: All fungicides were evaluated using the aforementioned method for their activity vs. all target diseases, unless stated otherwise. Wheat leaf blotch and brown rust activity were also evaluated using track spray applications, in which case the fungicides were formulated as EC formulations, containing 0.1% Trycol 5941 in the spray solutions. Wheat plants (variety Yuma) were grown from seed in a greenhouse in 50% mineral soil/50% soil-less Metro mix until the first leaf was fully emerged, with 7-10 seedlings per pot. These plants were inoculated with an aqueous spore suspension of Zymoseptoria tritici either prior to or after fungicide treatments. After inoculation the plants were kept in 100% relative humidity (one day in a dark dew chamber followed by two to three days in a lighted dew chamber at 20° C.) to permit spores to germinate and infect the leaf. The plants were then transferred to a greenhouse set at 20° C. for disease to develop. When disease symptoms were fully expressed on the 1st leaves of untreated plants, infection levels were assessed on a scale of 0 to 100 percent disease severity. Percent disease control was calculated using the ratio of disease severity on treated plants relative to untreated plants. Sugar beet plants (variety HH88) were grown in soil-less Metro mix and trimmed regularly to maintain a uniform plant size prior to test. Plants were inoculated with a spore suspension 24 hr after fungicide treatments. Inoculated plants were kept in a dew chamber at 22° C. for 48 hr then incubated in a greenhouse set at 24° C. under a clear plastic hood with bottom ventilation until disease symptoms were fully expressed. Fungicide formulation, application and disease assessment on the sprayed leaves followed the procedures as described in the Example A.

Rhyncosporium secalis = assay: Barley Scald fungicidal activity (RHYNSE); conditions: Hordeum vulgare, 24 h, high volume, 1 Day Protectant, read-out: RHYNSE % Control rating
Protocol: All fungicides were evaluated using the aforementioned method for their activity vs. all target diseases, unless stated otherwise. Wheat leaf blotch and brown rust activity were also evaluated using track spray applications, in which case the fungicides were formulated as EC formulations, containing 0.1% Trycol 5941 in the spray solutions. Wheat plants (variety Yuma) were grown from seed in a greenhouse in 50% mineral soil/50% soil-less Metro mix until the first leaf was fully emerged, with 7-10 seedlings per pot. These plants were inoculated with an aqueous spore suspension of Zymoseptoria tritici either prior to or after fungicide treatments. After inoculation the plants were kept in 100% relative humidity (one day in a dark dew chamber followed by two to three days in a lighted dew chamber at 20° C.) to permit spores to germinate and infect the leaf. The plants were then transferred to a greenhouse set at 20° C. for disease to develop. When disease symptoms were fully expressed on the 1st leaves of untreated plants, infection levels were assessed on a scale of 0 to 100 percent disease severity. Percent disease control was calculated using the ratio of disease severity on treated plants relative to untreated plants. Barley seedlings (variety Harrington) were propagated in soil-less Metro mix, with each pot having 8 to 12 plants, and used in the test when first leaf was fully emerged. Test plants were inoculated by an aqueous spore suspension of Rhyncosporium secalis 24 hr after fungicide treatments. After inoculation the plants were kept in a dew room at 22° C. with 100% relative humidity for 48 hr. The plants were then transferred to a greenhouse set at 20° C. for disease to develop. Fungicide formulation, application and disease assessment on the sprayed leaves followed the procedures as described in the Example A.

Pyricularia oryzae = assay: whole plant or invertebrate; conditions: 24 h, read-out: PYRIOR % Control rating
[1] = system: Colletotrichum lagenarium; assay: Cucumber Anthracnose fungicidal activity (COLLLA); conditions: Colletotrichum orbiculare, 24 h, high volume, 1 Day Protectant, read-out: COLLLA % Control rating
Protocol: All fungicides were evaluated using the aforementioned method for their activity vs. all target diseases, unless stated otherwise. Wheat leaf blotch and brown rust activity were also evaluated using track spray applications, in which case the fungicides were formulated as EC formulations, containing 0.1% Trycol 5941 in the spray solutions. Wheat plants (variety Yuma) were grown from seed in a greenhouse in 50% mineral soil/50% soil-less Metro mix until the first leaf was fully emerged, with 7-10 seedlings per pot. These plants were inoculated with an aqueous spore suspension of Zymoseptoria tritici either prior to or after fungicide treatments. After inoculation the plants were kept in 100% relative humidity (one day in a dark dew chamber followed by two to three days in a lighted dew chamber at 20° C.) to permit spores to germinate and infect the leaf. The plants were then transferred to a greenhouse set at 20° C. for disease to develop. When disease symptoms were fully expressed on the 1st leaves of untreated plants, infection levels were assessed on a scale of 0 to 100 percent disease severity. Percent disease control was calculated using the ratio of disease severity on treated plants relative to untreated plants. Cucumber seedlings (variety Bush Pickle) were propagated in soil-less Metro mix, with each pot having one plant, and used in the test when 12 to 14 days old. Test plants were inoculated with an aqueous spore suspension of Colletotrichum lagenarium 24 hr after fungicide treatments. After inoculation the plants were kept in a dew room at 22° C. with 100% relative humidity for 48 hr to permit spores to germinate and infect the leaf. The plants were then transferred to a growth room set at 22° C. for disease to develop. Fungicide formulation, application and disease assessment on the sprayed leaves followed the procedures as described in the Example A.

[2] = 24 h, 1 Day Protectant, read-out: PUCCRT 1DP (Wheat Brown Rust, 1 Day Protectant)
[3] = 72 h, 3 Day Curative, read-out: PUCCRT 3DC (Wheat Brown Rust, 3 Day Curative)

Row | Structure (SMILES) | pest or weed control at 121.5 g/ha (Puccinia triticina; [2]) [%] | pest or weed control at 121.5 g/ha (Puccinia triticina; [3]) [%] | pest or weed control at 100 ppm (Cercospora beticola) [%] | pest or weed control at 100 ppm (Rhyncosporium secalis) [%] | pest or weed control at 100 ppm (Pyricularia oryzae) [%] | pest or weed control at 100 ppm [1] [%]
1 | COc1ccnc(C(=O)N[C@@H](C)C(=O)O[C@@H](C)C(Oc2ccc(F)cc2)c2ccc(F)cc2)c1OCOC(C)=O (stereo partly drawn) [Example 238] | > 80 | > 80 | > 80 | > 80 | > 80 | < 80
2 | COc1ccnc(C(=O)N[C@@H](C)C(=O)O[C@@H](C)[C@H](Oc2ccc(F)cc2)c2ccccc2)c1OCOC(C)=O [Example 237] | > 80 | > 80 | > 80 | > 80 | > 80 | < 80
3 | COc1ccnc(C(=O)N[C@@H](C)C(=O)O[C@@H](C)[C@H](Oc2ccccc2)c2ccc(C)cc2)c1OCOC(C)=O [Example 252] | > 80 | > 80 | > 80 | > 80 | > 80 | > 80
4 | COc1ccnc(C(=O)N[C@@H](C)C(=O)O[C@@H](C)[C@H](Oc2ccccc2Cl)c2ccccc2)c1OC(C)=O [Example 205] | > 80 | > 80 | > 80 | < 80 | > 80 | > 80
5 | COc1ccnc(C(=O)N[C@@H](C)C(=O)O[C@@H](C)[C@H](Oc2ccccc2)c2ccc3ccccc3c2)c1OCOC(C)=O [Example 263] | > 80 | > 80 | > 80 | > 80 | > 80 | > 80
6 | COc1ccccc1[C@@H](Oc1ccccc1)[C@H](C)OC(=O)[C@H](C)NC(=O)c1nccc(OC)c1OCOC(C)=O [Example 255] | > 80 | > 80 | > 80 | < 80 | > 80 | > 80
7 | COc1ccnc(C(=O)N[C@@H](C)C(=O)O[C@@H](C)[C@H](Oc2ccccc2)c2ccc(F)cc2C)c1OCOC(C)=O [Example 259] | > 80 | > 80 | > 80 | > 80 | > 80 | > 80
8 | COc1cc(F)ccc1[C@@H](Oc1ccccc1)[C@H](C)OC(=O)[C@H](C)NC(=O)c1nccc(OC)c1OCOC(C)=O [Example 256] | > 80 | > 80 | > 80 | > 80 | > 80 | > 80
9 | COc1ccnc(C(=O)N[C@@H](C)C(=O)O[C@@H](C)[C@H](Oc2ccccc2)c2ccc(F)cc2F)c1OCOC(C)=O [Example 250] | > 80 | > 80 | < 80 | < 80 | < 80 | > 80
10 | COc1ccnc(C(=O)N[C@@H](C)C(=O)O[C@@H](C)[C@H](Oc2cccc(Cl)c2)c2ccccc2)c1OCOC(C)=O [Example 202] | > 80 | < 80 | < 80 | < 0 | < 80 | < 80
11 | COc1ccnc(C(=O)N[C@@H](C)C(=O)O[C@@H](C)[C@H](Oc2ccc(F)cc2)c2ccccc2)c1OC(C)=O [Example 235] | > 80 | > 80 | > 80 | > 80 | > 80 | > 80
12 | COc1ccnc(C(=O)N[C@@H](C)C(=O)O[C@@H](C)C(Oc2ccc(F)cc2)c2ccccc2)c1OC(C)=O (stereo partly drawn) [Example 236] | > 80 | > 80 | > 80 | > 80 | > 80 | < 80
13 | COc1ccnc(C(=O)N[C@@H](C)C(=O)O[C@@H](C)[C@H](Oc2cccc(F)c2)c2ccccc2)c1OCOC(C)=O [Example 187] | > 80 | > 80 | > 80 | > 80 | > 80 | > 80
14 | COc1ccnc(C(=O)N[C@@H](C)C(=O)O[C@@H](C)[C@H](Oc2ccccc2)c2ccccc2)c1OCOC(C)=O [Example 183] | > 80 | > 80 | > 80 | > 80 | > 80 | > 80
15 | COc1ccnc(C(=O)N[C@@H](C)C(=O)O[C@@H](C)[C@H](Oc2ccccc2)c2ccc(F)cc2Cl)c1OCOC(C)=O [Example 260] | > 80 | > 80 | > 80 | > 80 | > 80 | > 80
16 | COc1ccnc(C(=O)N[C@@H](C)C(=O)O[C@@H](C)[C@H](Oc2cc(F)cc(Cl)c2)c2ccccc2)c1OC(C)=O [Example 207] | > 80 | < 80 | > 80 | > 80 | > 80 | > 80
